Assay in all cases: growth of human tumour cells (NCI), 48 h
For test [1], the system named is SK-MEL-28.
Test [2] deals with PC-3.
Test [3] relates to A498.
For test [4], the system named is HOP-62.
In test [5] the test system is K562.
Test [6] deals with MCF7.
Test [7] deals with UACC-62.
The test system of test [8] is MDA-N.
The subject of test [9] is SN12C.
Test [10] deals with OVCAR-4.
For test [11], the system named is EKVX.
In test [12] the test system is MOLT-4.
Test [13] concerns SK-MEL-2.
In test [14] the test system is ACHN.
The test system of test [15] is UO-31.
The test system of test [16] is NCI-H522.
For test [17], the system named is SF-539.
Test [18] deals with LOX IMVI.
Test [19] deals with OVCAR-3.
The test system of test [20] is CCRF-CEM.

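Briefly, cells in 96-well plates were exposed to five compound concentrations for 48 h, and endpoints were estimated by linear interpolation. GI50 is the concentration that inhibits growth by half.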 Activity calls are given as the source filed them. Cut-off read from the data, not from the text of the source: active = GI50 up to about 1.1 µM and inactive = higher.

Turning to `Clc1ccc(Nc2nnc(CCCCCCCCc3nnc(Nc4ccc(Cl)cc4)o3)o2)cc1`, the GI50 was 48.6 µM (inactive) in test [1]; 38.1 µM (inactive) in test [2]; 37.1 µM (inactive) in [3]; 37.9 µM (inactive) in [4]; 7.35 µM (inactive) in test [5]; 39 µM (inactive) in [6]. Moreover, the GI50 in test [7] was 21.7 µM (inactive); in [8] it was 33.3 µM (inactive); in test [9], 45.7 µM (inactive); in test [10] it was 51.6 µM (inactive); in [11] it was 39 µM (inactive); in test [12] it was 10.9 µM (inactive). Also, the GI50 in test [13] was 50.8 µM (inactive); in [14], 38.8 µM (inactive); in test [15], 36.8 µM (inactive); in test [16], 21.5 µM (inactive).
`O=C(NS(=O)(=O)Nc1ccc(Cl)cc1)OCc1ccc(Cl)cc1Cl`: the GI50 in test [1] was 29.6 µM (inactive); in [17], 19.9 µM (inactive); in test [18] it was 22.6 µM (inactive); in [2], 31.4 µM (inactive); in test [19], 17.7 µM (inactive); in [3] it was 3.94 µM (inactive). Moreover, the GI50 in test [4] is 36.7 µM (inactive); in test [5], 28.4 µM (inactive); in test [20], 57 µM (inactive); in test [6] it was 14.8 µM (inactive); in test [7], 14 µM (inactive); in [8], 14.7 µM (inactive). In addition, the GI50 in [9] is 25.3 µM (inactive); in test [10] it was 24 µM (inactive); in test [12], 46.2 µM (inactive); in test [13] it was 28.8 µM (inactive); in test [14], 38.5 µM (inactive); in test [15], 17.5 µM (inactive).
As to `C[C@]12CCC(=O)C=C1CC[C@@H]1C2CC[C@]2(C)Nc3c(ncn3-c3ccc(F)cc3)CC12` (some centres not stated), the GI50 in test [1] was 29.3 µM (inactive); in test [17], 11.7 µM (inactive); in test [2], 12 µM (inactive); in test [19], 29.2 µM (inactive); in [3] it was 22.3 µM (inactive); in [4], 37.8 µM (inactive). In addition, the GI50 is 5.82 µM (inactive) in test [5]; 21 µM (inactive) in test [20]; 18 µM (inactive) in test [6]; 16.1 µM (inactive) in test [7]; 11.8 µM (inactive) in test [8]; 41.3 µM (inactive) in [9]. The GI50 in test [10] is 28.2 µM (inactive); in [11], 27.3 µM (inactive); in test [12], 23.3 µM (inactive); in test [14], 20.8 µM (inactive); in test [15], 27 µM (inactive); in [16], 15 µM (inactive).
Consider `CCN(CC)CCNc1ccc([N+](=O)[O-])c2nc3ccccc3c(N)c12`, for which the GI50 in [1] is 0.998 µM (active); in test [17], 0.446 µM (active); in test [18] it was 0.333 µM (active); in test [2] it was 0.372 µM (active); in [19] it was 0.701 µM (active); in test [3], 1.22 µM (inactive). Besides, the GI50 is 1.48 µM (inactive) in [4]; 0.316 µM (active) in [5]; 0.251 µM (active) in test [20]; 0.364 µM (active) in test [6]; 1.01 µM (active) in test [7]; 0.504 µM (active) in test [8]. In addition, the GI50 in test [9] is 0.441 µM (active); in [10] it was 0.422 µM (active); in test [11], 0.428 µM (active); in test [12] it was 0.223 µM (active); in [13] it was 0.214 µM (active); in test [14] it was 0.155 µM (active). For the same compound, in test [15], the GI50 is 0.597 µM (active).
As for `Clc1cccc(-c2nc3cccc4c3n2Cc2ncccc2-4)c1`, the GI50 in [1] is > 100 µM (inactive); in test [17] it was 41.8 µM (inactive); in [2], 73.6 µM (inactive); in test [19] it was 32.1 µM (inactive); in [3], > 100 µM (inactive); in test [4] it was 36.1 µM (inactive). Moreover, the GI50 in test [5] is > 100 µM (inactive); in test [20], > 100 µM (inactive); in [6], > 100 µM (inactive); in test [7], 56.6 µM (inactive); in test [8], > 100 µM (inactive); in test [9] it was > 100 µM (inactive). Moreover, the GI50 in [10] is 36 µM (inactive); in [11], > 100 µM (inactive); in [14] it was 8.2 µM (inactive); in test [16], > 100 µM (inactive).
For `CCOC(=O)C1c2[nH]c3ccccc3c2CCN1C(=O)c1ccco1` (configuration not stated), the GI50 was > 10 µM (inactive) in test [1]; > 10 µM (inactive) in test [17]; > 10 µM (inactive) in test [2]; > 10 µM (inactive) in [19]; 9.73 µM (inactive) in test [3]; > 10 µM (inactive) in [4]. The GI50 in [5], in test [20], in test [6], in [7], in test [8] and in [9] was > 10 µM (inactive) each time. Also, the GI50 in test [10], in [11], in [12] and in [14] was > 10 µM (inactive) throughout.
On to `COC(=O)C(Cc1c[nH]c2ccccc12)NP(=O)(O)OCC1OC(n2cc(I)c(=O)[nH]c2=O)CC1O` (configuration not stated), for which the GI50 in test [1], in [17], in test [18], in [2], in test [19] and in [3] was > 100 µM (inactive) each time. The GI50 in test [4], in test [5], in test [20], in test [6], in test [7] and in test [8] was > 100 µM (inactive) each time. Besides, the GI50 in [9], in [10], in [11], in test [12], in [14] and in test [15] was > 100 µM (inactive) in each case. Besides, in [16], the GI50 is > 100 µM (inactive).
Turning to `NC(Cc1ccc(OCc2ccccc2)cn1)C(=O)O` (configuration not stated), the GI50 in [1], in test [17], in [18], in [2], in test [19] and in test [3] was > 100 µM (inactive) each time. The GI50 in test [4], in test [5], in [20], in test [6], in test [8] and in [9] was > 100 µM (inactive) in each case. Moreover, the GI50 in test [11], in test [12], in [14], in test [15] and in [16] was > 100 µM (inactive) throughout.
In the case of `Cc1nc(O)nc(NNCc2ccc(Cl)cc2)c1C(=O)Nc1ccc(Cl)cc1`, the GI50 in test [1], in test [17], in test [18], in test [2], in test [19] and in [3] was > 100 µM (inactive) each time. For the same compound, the GI50 is > 100 µM (inactive) in test [4]; > 100 µM (inactive) in [20]; > 100 µM (inactive) in [6]; 3.69 µM (inactive) in test [7]; 81.1 µM (inactive) in test [8]; > 100 µM (inactive) in [9]. Besides, the GI50 in [10], in [12], in test [13] and in test [15] was > 100 µM (inactive) throughout.
Take `Nc1nc(O)c([I+]c2ccccc2)c(=O)[nH]1`: the GI50 in [1], in test [17], in [18], in test [2], in test [19] and in test [3] was > 100 µM (inactive) throughout. Also, the GI50 in [4], in test [5], in test [20], in [6], in test [8] and in [9] was > 100 µM (inactive) throughout. Moreover, the GI50 in test [10] was > 100 µM (inactive); in test [11], > 100 µM (inactive); in [12], > 100 µM (inactive); in test [14], > 100 µM (inactive); in [15] it was 85.1 µM (inactive); in test [16], > 100 µM (inactive).
`COc1cccc(C(=O)O[C@H]2[C@@H]3[C@]4(OC(C)=O)CO[C@@H]4C[C@H](O)[C@@]3(C)C(=O)[C@H](OC(C)=O)C3=C(C)[C@@H](OC(=O)[C@H](O)[C@@H](NC(=O)OC(C)(C)C)c4ccco4)C[C@]2(O)C3(C)C)c1`: the GI50 was 3.82 µM (inactive) in test [1]; < 0.00375 µM (active) in test [17]; < 0.00375 µM (active) in test [18]; < 0.00375 µM (active) in [2]; < 0.00375 µM (active) in test [19]; < 0.00375 µM (active) in [4]. Also, the GI50 in test [5] is < 0.00375 µM (active); in test [20], < 0.00375 µM (active); in test [6] it was < 0.00375 µM (active); in test [7] it was 0.0442 µM (active); in [8] it was < 0.00375 µM (active); in test [9], 0.064 µM (active). The GI50 in test [10] is 6.32 µM (inactive); in [11], 0.173 µM (active); in test [12] it was < 0.00375 µM (active); in [13] it was < 0.00375 µM (active); in [14], 0.139 µM (active); in [15], < 0.00375 µM (active). Also, the GI50 in [16] is < 0.00375 µM (active).

For the origin of these results see ChEMBL document CHEMBL1201862, “PubChem BioAssay data set” (2004).
